In series [1] the target is T1, Macrophage colony-stimulating factor 1 receptor (Mus musculus) (UniProt P09581).
T1 sequence (whole entry): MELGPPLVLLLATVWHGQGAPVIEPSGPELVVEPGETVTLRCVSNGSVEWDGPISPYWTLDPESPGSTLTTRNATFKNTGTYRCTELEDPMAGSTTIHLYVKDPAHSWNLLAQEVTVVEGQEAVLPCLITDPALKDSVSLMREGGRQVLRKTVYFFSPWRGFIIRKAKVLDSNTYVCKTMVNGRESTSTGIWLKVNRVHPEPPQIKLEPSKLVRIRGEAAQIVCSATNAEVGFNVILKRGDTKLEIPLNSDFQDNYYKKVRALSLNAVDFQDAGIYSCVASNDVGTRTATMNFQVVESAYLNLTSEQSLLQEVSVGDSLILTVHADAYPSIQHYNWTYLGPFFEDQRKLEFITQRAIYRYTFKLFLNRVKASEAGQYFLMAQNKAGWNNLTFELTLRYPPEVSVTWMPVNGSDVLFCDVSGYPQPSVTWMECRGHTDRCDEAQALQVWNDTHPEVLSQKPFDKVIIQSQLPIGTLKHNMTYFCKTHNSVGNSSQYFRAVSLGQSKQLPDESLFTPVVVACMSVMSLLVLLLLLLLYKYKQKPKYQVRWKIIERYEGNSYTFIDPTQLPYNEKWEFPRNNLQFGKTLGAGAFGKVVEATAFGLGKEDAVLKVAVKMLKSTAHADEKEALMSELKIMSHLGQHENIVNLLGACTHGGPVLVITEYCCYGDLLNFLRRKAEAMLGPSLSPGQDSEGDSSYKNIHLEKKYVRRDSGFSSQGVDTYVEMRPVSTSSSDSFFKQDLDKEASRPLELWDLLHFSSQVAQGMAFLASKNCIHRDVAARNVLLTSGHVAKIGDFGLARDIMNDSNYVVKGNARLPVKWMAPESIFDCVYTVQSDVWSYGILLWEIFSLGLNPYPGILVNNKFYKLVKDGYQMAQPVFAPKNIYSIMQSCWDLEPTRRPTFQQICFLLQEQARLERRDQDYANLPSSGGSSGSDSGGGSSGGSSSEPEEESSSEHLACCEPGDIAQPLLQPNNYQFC
The experiment in a line: In vivo inhibition of CSF1R in 5XFAD mouse assessed as reduction in plaque pathology in […] cortex at 600 ppm administered as rodent chow starting from 1.5 months and measured after 5 months by immunolabeling based confocal microscopic analysis. The following applies: route po, time 3.5 months.

Series [2] deals with Protein kinase C gamma type (Homo sapiens, UniProt P05129). Description: Inhibition of PRKCG (unknown origin).
The target of series [3] is Ephrin type-B receptor 1 (Homo sapiens, UniProt P54762). The experiment in a line: Inhibition of EPHB1 (unknown origin).
The test system of series [4] is Mus musculus. Description: Prevention of Nell2 gene downregulation in 5XFAD mouse hippocampus at 1200 ppm administered as rodent chow starting from 1.5 months and measured after 7 months by Nanostring analysis. The following applies: route po, time 5.5 months. The series is classed as functional, tissue-based.
The subject of series [5] is Mus musculus. Description: Antialzheimer activity in 5XFAD mouse assessed as number of pyroglutamate-3-modified positive plaques per FOV in cortex at 1200 ppm administered as rodent chow starting from 1.5 months and measured after 7 months by Thio-S staining based confocal microscopic analysis (reference value: 14 to 34). The series is classed as functional. The following applies: route po, time 5.5 months, 4015 h.

Series [6] deals with Platelet-derived growth factor receptor beta (Homo sapiens, UniProt P09619). Description: Inhibition of PDGFRB (unknown origin).
For series [7], the system named is Mus musculus. Description: Antialzheimer activity in 5XFAD mouse assessed as percent change in claudin-5 intensity of thalamus at 1200 ppm administered as rodent chow starting from 1.5 months and measured after 4 months by immunolabeling analysis relative to control. The series is classed as functional. The following applies: route po, time 2.5 months, 1825 h.

Series [8] addresses Protein kinase C beta type (Homo sapiens, UniProt P05771). Description: Inhibition of PRKCB1 (unknown origin).
The target in series [9] is Fibroblast growth factor receptor 2 (Homo sapiens, UniProt P21802). Description: Inhibition of FGFR2 (unknown origin).
Series [10] in a line: Effect on Spi1 gene expression in 5XFAD mouse thalamus at 1200 ppm administered as rodent chow starting from 1.5 months and measured after 7 months by RNA-Seq analysis (reference value: 2.107 to 3.285 RPKM). The series is classed as functional. The following applies: route po, time 5.5 months, 4015 h.
Series [11] has as its target Tyrosine-protein kinase CSK (Homo sapiens, UniProt P41240). Description: Inhibition of CSK (unknown origin).
A short description of series [12]: Cmax in male rat at 45 mg/kg, po administered as single dose via gavage. The series is classed as ADME, organism-based. The following applies: in vivo.
Series [13] is described as follows: Effect on Dusp5 gene expression in wildtype mouse hippocampus assessed as percent change in Reads Per kilo base per Million mapped reads at 1200 ppm administered as rodent chow starting from 1.5 months and measured after 7 months by RNA-Seq analysis (reference value: 75.632 to 114.605 %). The series is classed as functional. The following applies: route po, time 5.5 months, 4015 h.

In series [14] the target is T1, Macrophage colony-stimulating factor 1 receptor (Mus musculus). The experiment in a line: In vivo inhibition of CSF1R in wildtype mouse assessed as number of S100bteta positive cells per FOV in somatosensory cortex at 1200 ppm administered as rodent chow for 10 to 24 weeks by immunolabelling based confocal microscopic analysis (reference value: 14 to 342). The series is classed as functional. The following applies: route po, time 10-24 weeks.

Series [15] has as its system Mus musculus. The experiment in a line: Effect on APP processing pathway in wildtype mouse assessed as ADAM10 protein signal intensity in cortex at 1200 ppm administered as rodent starting from 1.5 months and measured after 7 months (reference value: 37.275 to 230.211 %). The series is classed as functional. The following applies: route po, time 5.5 months, 4015 h.

Series [16] is described as follows: Effect on Cst7 gene expression in 5XFAD mouse hippocampus at 1200 ppm administered as rodent chow starting from 1.5 months and measured after 7 months by RNA-Seq analysis (reference value: 14.615 to 34.909 RPKM). The following applies: route po, time 5.5 months, 4015 h. The series is classed as functional.
Series [17] in a line: Effect on Ctsd gene expression in 5XFAD mouse hippocampus at 1200 ppm administered as rodent chow starting from 1.5 months and measured after 7 months by RNA-Seq analysis (reference value: 230.675 to 384.375 RPKM). The series is classed as functional. The following applies: route po, time 5.5 months, 4015 h.
Series [18] concerns the target CDK9/cyclin T1 (Homo sapiens, UniProt P50750). Description: Inhibition of CDK9/CyclinT1 (unknown origin). The series is classed as protein-complex assay.
Series [19] can be described thus: Toxicity in wildtype mouse assessed as time in platform zone at 1200 ppm administered as rodent chow for 10 to 24 weeks by Morris water maze test (reference value: 0 to 2.7 sec). The following applies: in vivo, po, time 10-24 weeks.
Series [20] addresses Aurora kinase A (Homo sapiens, UniProt O14965). The experiment in a line: Inhibition of AURKA (unknown origin).
Series [21] can be described thus: Clearance in mouse at 1.92 mg/kg, iv administered as single dose. The following applies: in vivo. The series is classed as ADME, organism-based.
In series [22] the test system is Mus musculus. The experiment in a line: Antialzheimer activity in 5XFAD mouse assessed as number of Thio-S positive plaques per FOV in […] cortex at 1200 ppm administered as rodent chow starting from 1.5 months and measured after 7 months by Thio-S staining based confocal microscopic analysis (reference value: 52 to 140). The series is classed as functional. The following applies: route po, time 5.5 months, 4015 h.

For series [23], the system named is Mus musculus. Description: Effect on APP processing pathway in wildtype mouse assessed as C-terminal PS1 protein signal intensity in cortex at 1200 ppm administered as rodent starting from 1.5 months and measured after 7 months (reference value: 5.248 to 133.048 %). The series is classed as functional. The following applies: route po, time 5.5 months, 4015 h.

Results on two compounds are retold here after ChEMBL document CHEMBL5649170, “Sustained microglial depletion with CSF1R inhibitor impairs parenchymal plaque development in an Alzheimer's disease model” (Nat Commun, 2019).

The term IC50 denotes the midpoint of a concentration-inhibition curve. The low end stands for higher potency, the high end for lower potency. The term Cmax denotes the highest concentration seen after dosing. As a reminder, the clearance is the rate of elimination divided by the concentration.

Active and inactive are the calls of the source. No cut-off for these calls is given here.

Chain of Protein kinase C beta type (P05771 whole entry): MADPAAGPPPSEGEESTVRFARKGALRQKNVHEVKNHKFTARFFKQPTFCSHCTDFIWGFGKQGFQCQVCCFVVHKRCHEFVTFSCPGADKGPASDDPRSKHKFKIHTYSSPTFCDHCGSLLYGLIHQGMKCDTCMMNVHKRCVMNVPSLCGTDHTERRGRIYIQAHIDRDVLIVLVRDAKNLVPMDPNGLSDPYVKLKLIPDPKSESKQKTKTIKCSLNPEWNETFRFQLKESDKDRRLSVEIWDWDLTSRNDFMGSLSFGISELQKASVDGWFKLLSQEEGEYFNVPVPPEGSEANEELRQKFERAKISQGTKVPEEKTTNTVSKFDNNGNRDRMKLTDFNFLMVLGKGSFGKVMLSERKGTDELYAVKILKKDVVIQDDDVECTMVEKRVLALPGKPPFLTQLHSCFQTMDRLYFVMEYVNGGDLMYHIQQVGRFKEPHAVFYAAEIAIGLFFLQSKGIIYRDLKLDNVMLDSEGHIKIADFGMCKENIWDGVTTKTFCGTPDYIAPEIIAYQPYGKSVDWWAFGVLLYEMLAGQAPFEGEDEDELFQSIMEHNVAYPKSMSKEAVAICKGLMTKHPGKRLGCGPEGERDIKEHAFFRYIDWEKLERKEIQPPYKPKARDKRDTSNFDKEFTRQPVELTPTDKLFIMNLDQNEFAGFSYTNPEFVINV
Chain of Fibroblast growth factor receptor 2 (P21802 whole entry): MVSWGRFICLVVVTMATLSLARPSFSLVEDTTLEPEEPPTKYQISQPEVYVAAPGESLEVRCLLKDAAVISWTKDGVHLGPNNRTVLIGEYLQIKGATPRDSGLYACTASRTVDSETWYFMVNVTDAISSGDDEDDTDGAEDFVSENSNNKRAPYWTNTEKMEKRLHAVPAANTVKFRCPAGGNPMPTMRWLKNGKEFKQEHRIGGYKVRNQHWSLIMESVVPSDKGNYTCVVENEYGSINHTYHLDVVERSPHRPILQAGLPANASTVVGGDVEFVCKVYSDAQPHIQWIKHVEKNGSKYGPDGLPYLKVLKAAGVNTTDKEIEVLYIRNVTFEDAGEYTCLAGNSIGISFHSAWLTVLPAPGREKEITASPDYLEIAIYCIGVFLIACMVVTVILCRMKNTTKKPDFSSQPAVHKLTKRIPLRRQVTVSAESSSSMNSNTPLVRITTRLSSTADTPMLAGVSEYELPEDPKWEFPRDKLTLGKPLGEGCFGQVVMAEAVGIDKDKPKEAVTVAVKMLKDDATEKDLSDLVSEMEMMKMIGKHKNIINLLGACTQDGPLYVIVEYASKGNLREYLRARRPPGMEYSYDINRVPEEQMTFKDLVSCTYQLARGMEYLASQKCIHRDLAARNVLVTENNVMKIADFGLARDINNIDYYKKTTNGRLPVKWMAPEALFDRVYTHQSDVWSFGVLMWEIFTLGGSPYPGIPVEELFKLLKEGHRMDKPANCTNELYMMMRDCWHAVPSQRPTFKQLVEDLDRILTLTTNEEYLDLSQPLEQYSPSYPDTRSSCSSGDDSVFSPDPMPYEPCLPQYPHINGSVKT
Chain of Tyrosine-protein kinase CSK (P41240 whole entry): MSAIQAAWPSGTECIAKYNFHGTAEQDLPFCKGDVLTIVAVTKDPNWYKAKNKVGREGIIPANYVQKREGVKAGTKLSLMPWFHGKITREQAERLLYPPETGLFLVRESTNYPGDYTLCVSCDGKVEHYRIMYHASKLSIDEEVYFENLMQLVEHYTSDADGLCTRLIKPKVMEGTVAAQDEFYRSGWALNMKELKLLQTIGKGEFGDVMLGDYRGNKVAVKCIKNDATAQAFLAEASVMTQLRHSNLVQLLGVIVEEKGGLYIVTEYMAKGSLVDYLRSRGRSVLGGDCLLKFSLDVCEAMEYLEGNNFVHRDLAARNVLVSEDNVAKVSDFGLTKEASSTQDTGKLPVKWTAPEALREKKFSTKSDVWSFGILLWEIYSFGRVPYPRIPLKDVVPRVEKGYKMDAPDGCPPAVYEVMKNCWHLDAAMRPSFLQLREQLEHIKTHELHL
Chain of CDK9/cyclin T1 (O60563 whole entry): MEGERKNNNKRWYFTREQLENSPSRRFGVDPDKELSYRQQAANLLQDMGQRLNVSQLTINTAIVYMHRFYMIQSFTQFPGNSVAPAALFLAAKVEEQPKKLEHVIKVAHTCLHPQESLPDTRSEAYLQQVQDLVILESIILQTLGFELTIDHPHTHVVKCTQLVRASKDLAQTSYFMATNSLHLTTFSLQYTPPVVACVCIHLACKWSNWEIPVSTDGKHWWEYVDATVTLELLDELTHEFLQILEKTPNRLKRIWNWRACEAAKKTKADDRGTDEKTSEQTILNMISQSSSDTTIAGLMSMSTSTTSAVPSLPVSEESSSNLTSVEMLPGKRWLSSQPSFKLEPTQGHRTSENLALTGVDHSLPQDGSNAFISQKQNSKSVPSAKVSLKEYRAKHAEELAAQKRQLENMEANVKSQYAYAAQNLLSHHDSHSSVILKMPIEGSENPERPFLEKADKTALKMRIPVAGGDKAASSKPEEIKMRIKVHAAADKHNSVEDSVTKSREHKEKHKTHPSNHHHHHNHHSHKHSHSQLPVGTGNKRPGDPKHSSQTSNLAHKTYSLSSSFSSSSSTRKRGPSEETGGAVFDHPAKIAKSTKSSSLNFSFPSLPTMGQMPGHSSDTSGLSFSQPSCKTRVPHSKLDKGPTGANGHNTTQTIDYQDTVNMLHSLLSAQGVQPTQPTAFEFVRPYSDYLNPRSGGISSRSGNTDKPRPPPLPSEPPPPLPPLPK
Chain of CDK9/cyclin T1 (P50750 whole entry): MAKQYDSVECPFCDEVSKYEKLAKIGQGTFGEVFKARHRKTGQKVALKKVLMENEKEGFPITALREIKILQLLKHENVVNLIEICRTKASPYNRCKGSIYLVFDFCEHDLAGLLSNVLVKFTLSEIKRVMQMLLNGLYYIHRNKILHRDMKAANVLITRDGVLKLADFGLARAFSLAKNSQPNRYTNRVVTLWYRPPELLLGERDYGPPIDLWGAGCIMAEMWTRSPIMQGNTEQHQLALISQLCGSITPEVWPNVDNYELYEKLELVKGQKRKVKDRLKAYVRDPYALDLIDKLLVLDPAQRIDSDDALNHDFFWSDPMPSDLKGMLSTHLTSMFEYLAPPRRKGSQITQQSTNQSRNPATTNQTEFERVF
Chain of Ephrin type-B receptor 1 (P54762 whole entry): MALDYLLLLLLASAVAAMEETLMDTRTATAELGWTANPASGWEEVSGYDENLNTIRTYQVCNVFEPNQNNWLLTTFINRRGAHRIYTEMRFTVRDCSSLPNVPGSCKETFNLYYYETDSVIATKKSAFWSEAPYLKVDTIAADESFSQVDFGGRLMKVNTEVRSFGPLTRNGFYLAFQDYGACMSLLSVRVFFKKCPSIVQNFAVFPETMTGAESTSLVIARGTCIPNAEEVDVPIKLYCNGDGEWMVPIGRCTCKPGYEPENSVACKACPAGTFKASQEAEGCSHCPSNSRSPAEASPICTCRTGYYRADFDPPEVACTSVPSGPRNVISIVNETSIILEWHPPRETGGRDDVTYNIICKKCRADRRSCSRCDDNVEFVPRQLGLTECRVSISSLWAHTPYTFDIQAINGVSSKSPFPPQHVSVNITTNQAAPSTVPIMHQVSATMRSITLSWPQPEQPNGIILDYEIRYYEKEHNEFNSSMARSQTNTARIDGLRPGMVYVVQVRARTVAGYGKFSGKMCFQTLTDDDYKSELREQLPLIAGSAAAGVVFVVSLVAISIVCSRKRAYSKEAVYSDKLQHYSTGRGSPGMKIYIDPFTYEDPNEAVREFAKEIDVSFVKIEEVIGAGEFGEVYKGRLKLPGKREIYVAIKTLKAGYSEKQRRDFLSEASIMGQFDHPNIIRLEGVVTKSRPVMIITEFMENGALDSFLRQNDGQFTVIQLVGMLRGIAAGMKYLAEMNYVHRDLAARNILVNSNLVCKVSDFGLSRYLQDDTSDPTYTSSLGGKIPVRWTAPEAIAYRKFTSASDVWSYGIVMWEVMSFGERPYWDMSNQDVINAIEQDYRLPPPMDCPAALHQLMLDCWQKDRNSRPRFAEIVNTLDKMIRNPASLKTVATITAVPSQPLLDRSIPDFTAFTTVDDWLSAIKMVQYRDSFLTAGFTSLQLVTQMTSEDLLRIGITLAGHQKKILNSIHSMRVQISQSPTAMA

For the compound `FC(F)(F)c1ccc(CNc2ccc(Cc3c[nH]c4ncc(Cl)cc34)cn2)cn1` [PEXIDARTINIB], the inhibition result in [1] was “Active”.
Consider `COc1ncc(F)cc1CNc1ccc(Cc2c[nH]c3ncc(C)cc23)c(F)n1` [PLX-5622], for which the concentration for half-maximal inhibition (IC50) in series [2], in series [3], in series [6], in [8], in series [9] and in [11] was over 1000 nM throughout. Besides, the IC50 in series [18] and in series [20] was over 1000 nM in each case. Also, the result in [4] was Active. Further, the Activity in [5] is 0; in series [7], 7.551%; in series [10] it was 0 RPKM; in series [13] it was 94.671%; in series [14], 270; in series [15], 59.835%. In addition, the Activity in series [16] is 2.289 RPKM; in series [17] it was 132.829 RPKM; in series [22] it was 17; in series [23], 15.313%. In addition, the Cmax in series [12] was determined as 12000 ng/mL. Further, the Time in series [19] turned out to be 0.4 s. In addition, the clearance in series [21] turned out to be 2.1 mL/min/kg.
